PubChem BioAssay AID340 (DTP/NCI, 2004)
“And” between values parts separate entries of the source, which are not always exact repeats. Equal entries are not always repeated. Toxic doses and inconclusive results are not listed.

Test system: CD2F1 mice, ip reticulum cell sarcoma, survival T/C
Experiment: NCI In Vivo Anticancer Drug Screen. Data for tumor model Reticulum Cell Sarcoma (Kelley Mouse) (intraperitoneal) in CD2F1 (CDF1) mice
Settings: endpoint: median survival time, higher = longer survival
Procedure: The antitumor activity of compounds was measured in mice bearing transplantable tumors. Survival or tumor size were measured and the results are expressed as the measurement made in the treated group (T) divided by the measurement made in the vehicle treated control group (C). The tumor model used in this assay is Reticulum Cell Sarcoma (Kelley Mouse) (intraperitoneal) in CD2F1 (CDF1) mice

[1] = dose: 1.0 mg/kg/injection, schedule: Q01DX010 (ip), vehicle: saline
[2] = dose: 2.0 mg/kg/injection, schedule: Q01DX010 (ip), vehicle: saline
[3] = dose: 250.0 micrograms/kg/injection, schedule: Q01DX010 (ip), vehicle: saline
[4] = dose: 500.0 micrograms/kg/injection, schedule: Q01DX010 (ip), vehicle: saline
[5] = dose: 62.5 mg/kg/injection, schedule: Q01DX010 (ip), vehicle: saline
[6] = dose: 125.0 mg/kg/injection, schedule: Q01DX010 (ip), vehicle: saline
[7] = dose: 5.0 mg/kg/injection, schedule: Q01DX010 (ip), vehicle: saline
[8] = dose: 10.0 mg/kg/injection, schedule: Q01DX010 (ip), vehicle: saline
[9] = dose: 20.0 mg/kg/injection, schedule: Q01DX010 (ip), vehicle: saline
[10] = dose: 40.0 mg/kg/injection, schedule: Q01DX010 (ip), vehicle: saline
[11] = dose: 12.5 mg/kg/injection, schedule: Q01DX010 (sc), vehicle: steriod suspending solution
[12] = dose: 25.0 mg/kg/injection, schedule: Q01DX010 (sc), vehicle: steriod suspending solution
[13] = dose: 50.0 mg/kg/injection, schedule: Q01DX010 (sc), vehicle: steriod suspending solution
[14] = dose: 100.0 mg/kg/injection, schedule: Q01DX010 (sc), vehicle: steriod suspending solution
[15] = dose: 1.25 mg/kg/injection, schedule: Q01DX010 (ip), vehicle: saline
[16] = dose: 2.5 mg/kg/injection, schedule: Q01DX010 (ip), vehicle: saline
[17] = dose: 8.0 mg/kg/injection, schedule: Q01DX010 (ip), vehicle: saline
[18] = dose: 16.0 mg/kg/injection, schedule: Q01DX010 (ip), vehicle: saline
[19] = dose: 32.0 mg/kg/injection, schedule: Q01DX010 (ip), vehicle: saline
[20] = dose: 64.0 mg/kg/injection, schedule: Q01DX010 (ip), vehicle: saline
[21] = dose: 6.25 mg/kg/injection, schedule: Q01DX010 (ip), vehicle: saline
[22] = dose: 12.5 mg/kg/injection, schedule: Q01DX010 (ip), vehicle: saline
[23] = dose: 25.0 mg/kg/injection, schedule: Q01DX010 (ip), vehicle: saline
[24] = dose: 50.0 mg/kg/injection, schedule: Q01DX010 (ip), vehicle: saline
[25] = dose: 100.0 mg/kg/injection, schedule: Q01DX010 (ip), vehicle: saline
[26] = dose: 200.0 mg/kg/injection, schedule: Q01DX010 (ip), vehicle: saline
[27] = dose: 4.0 mg/kg/injection, schedule: Q01DX010 (ip), vehicle: saline

## CS(=O)(=O)OCCN(CCOS(C)(=O)=O)c1ccc(N=O)cc1
[1]
  T/C: 103 % of control and 110 % of control
[2]
  T/C: 96 % of control
dose: 62.5 micrograms/kg/injection, schedule: Q01DX010 (ip), vehicle: saline
  T/C: 116 % of control
[3]
  T/C: 166 % of control
[4]
  T/C: 175 % of control

## NC(CCSCc1ccc(N(CCCl)CCCl)cc1)C(=O)O (centres undefined)
dose: 4.5 mg/kg/injection, schedule: Q01DX010 (ip), vehicle: saline
  T/C: 100 % of control
dose: 9.0 mg/kg/injection, schedule: Q01DX010 (ip), vehicle: saline
  T/C: 106 % of control and 117 % of control
dose: 18.0 mg/kg/injection, schedule: Q01DX010 (ip), vehicle: saline
  T/C: 106 % of control and 117 % of control
dose: 36.0 mg/kg/injection, schedule: Q01DX010 (ip), vehicle: saline
  T/C: 110 % of control and 111 % of control

## OCC1OC(n2cnc3c(Cl)ncnc32)C(O)C1O (centres undefined)
[5]
  T/C: 97 % of control and 100 % of control
[6]
  T/C: 92 % of control and 100 % of control
dose: 250.0 mg/kg/injection, schedule: Q01DX010 (ip), vehicle: saline
  T/C: 95 % of control and 102 % of control
dose: 500.0 mg/kg/injection, schedule: Q01DX010 (ip), vehicle: saline
  T/C: 91 % of control and 92 % of control

## Cc1cc(N(CCCl)CCCl)ccc1N=Nc1ccccc1C(=O)O
[7]
  T/C: 100 % of control
[8]
  T/C: 103 % of control
[9]
  T/C: 113 % of control and 122 % of control
[10]
  T/C: 106 % of control

## OCC1OC(n2cnc3c(=S)nc[nH]c32)C(O)C1O (centres undefined)
[9]
  T/C: 117 % of control
dose: 80.0 mg/kg/injection, schedule: Q01DX010 (ip), vehicle: saline
  T/C: 170 % of control and 177 % of control
dose: 160.0 mg/kg/injection, schedule: Q01DX010 (ip), vehicle: saline
  T/C: 180 % of control

## CC/C(=C(/CC)c1ccc(O)cc1)c1ccc(O)cc1
[11]
  T/C: 105 % of control and 110 % of control
[12]
  T/C: 105 % of control
[13]
  T/C: 100 % of control and 110 % of control
[14]
  T/C: 105 % of control and 115 % of control

## N#[N+]c1cnc([O-])[nH]c1=O
[15]
  T/C: 100 % of control
[16]
  T/C: 100 % of control and 112 % of control
[7]
  T/C: 112 % of control and 118 % of control
[8]
  T/C: 106 % of control

## Nc1c(Br)cc2c(c1Br)Cc1cc([N+](=O)[O-])ccc1-2
dose: 15.6 mg/kg/injection, schedule: Q01DX010 (ip), vehicle: saline
  T/C: 100 % of control
dose: 31.3 mg/kg/injection, schedule: Q01DX010 (ip), vehicle: saline
  T/C: 100 % of control
[5]
  T/C: 88 % of control and 103 % of control
[6]
  T/C: 94 % of control and 100 % of control

## Oc1cc(CN(CCCl)CCCl)c(O)cc1CN(CCCl)CCCl
dose: 0.63 mg/kg/injection, schedule: Q01DX010 (ip), vehicle: saline
  T/C: 100 % of control
[15]
  T/C: 100 % of control
[16]
  T/C: 106 % of control
[7]
  T/C: 100 % of control

## O=C(Nc1ccc(C2=NCCN2)cc1)c1cccc(C(=O)Nc2ccc(C3=NCCN3)cc2)c1
[17]
  T/C: 121 % of control
[18]
  T/C: 121 % of control
[19]
  T/C: 157 % of control
[20]
  T/C: 186 % of control and 210 % of control

## NC(Cc1ccc(N(CCCl)CCCl)cc1)C(=O)O (centres undefined)
[8]
  T/C: 100 % of control

## CN(C)c1ccc(/C=C/c2ccnc3ccccc23)cc1
[7]
  T/C: 100 % of control
[8]
  T/C: 100 % of control and 112 % of control
[9]
  T/C: 96 % of control and 100 % of control
[10]
  T/C: 96 % of control and 103 % of control

## C[C@H]1C(=O)O[C@@H]2CCN3CC=C(COC(=O)[C@](C)(O)[C@@]1(C)O)[C@H]23
dose: 3.13 mg/kg/injection, schedule: Q01DX010 (ip), vehicle: saline
  T/C: 103 % of control
[21]
  T/C: 100 % of control
[22]
  T/C: 103 % of control
[23]
  T/C: 121 % of control

## Nc1nc2n[nH]nc2c(=O)[nH]1
dose: 200.0 mg/kg/injection, schedule: Q01DX010 (ip), vehicle: alkali diluted with saline
  T/C: 115 % of control and 86 % of control

## c1ccc(CNc2ncnc3[nH]ncc23)cc1
[17]
  T/C: 100 % of control and 105 % of control
[18]
  T/C: 100 % of control and 105 % of control
[19]
  T/C: 100 % of control and 105 % of control
[20]
  T/C: 95 % of control and 97 % of control

## C[C@@H]1C[C@@H]([C@H](O)CC2CC(=O)NC(=O)C2)C(=O)[C@@H](C)C1
[7]
  T/C: 97 % of control and 100 % of control
[8]
  T/C: 105 % of control and 108 % of control
[9]
  T/C: 120 % of control
[10]
  T/C: 105 % of control

## COC(=O)[C@@H]1c2cc3c(c(O)c2[C@@H](OC2OC(C)C(OC)C(C)(OC)C2OC)C[C@]1(C)O)C(=O)c1c(O)cc2c(c1C3=O)O[C@H]1O[C@]2(C)[C@H](O)[C@@H](N(C)C)[C@@H]1O (some centres undefined)
dose: 63.0 micrograms/kg/injection, schedule: Q01DX010 (ip), vehicle: saline
  T/C: 103 % of control
dose: 125.0 micrograms/kg/injection, schedule: Q01DX010 (ip), vehicle: saline
  T/C: 103 % of control and 105 % of control
[3]
  T/C: 103 % of control and 105 % of control
[4]
  T/C: 100 % of control
dose: 1000.0 micrograms/kg/injection, schedule: Q01DX010 (ip), vehicle: saline
  T/C: 94 % of control

## CSc1ncnc2nc[nH]c12
[23]
  T/C: 100 % of control
[24]
  T/C: 100 % of control
[25]
  T/C: 93 % of control
[26]
  T/C: 100 % of control

## C[C@]12C=CC(=O)C=C1CC[C@@H]1[C@@H]2[C@@H](O)C[C@@]2(C)[C@H]1CC[C@]2(O)C(=O)CO
[11]
  T/C: 97 % of control and 100 % of control
[12]
  T/C: 94 % of control and 100 % of control
[13]
  T/C: 94 % of control and 97 % of control
[14]
  T/C: 94 % of control and 100 % of control

## Nc1nc(=S)c2ncn(C3OC(CO)C(O)C3O)c2[nH]1 (centres undefined)
[1]
  T/C: 178 % of control
[2]
  T/C: 182 % of control
[27]
  T/C: 103 % of control

## O=C(O)c1[nH]c(=O)[nH]c(=O)c1F
[15]
  T/C: 91 % of control
[16]
  T/C: 94 % of control
[7]
  T/C: 97 % of control and 100 % of control
[8]
  T/C: 94 % of control and 100 % of control

## O=C(Nc1ccc(C2=NCCCN2)cc1)c1ccc(C(=O)Nc2ccc(C3=NCCCN3)cc2)cc1
dose: 0.5 mg/kg/injection, schedule: Q01DX010 (ip), vehicle: other
  T/C: 117 % of control and 120 % of control
dose: 1.0 mg/kg/injection, schedule: Q01DX010 (ip), vehicle: other
  T/C: 186 % of control and 202 % of control
dose: 2.0 mg/kg/injection, schedule: Q01DX010 (ip), vehicle: other
  T/C: 248 % of control

## O=NN(CCCl)C(=O)NCCCl
[21]
  T/C: 194 % of control and 200 % of control
[22]
  T/C: 97 % of control and 110 % of control

## CS(=O)(=O)OCC(O)C(O)C(O)C(O)COS(C)(=O)=O (centres undefined)
[23]
  T/C: 102 % of control
[24]
  T/C: 100 % of control and 111 % of control
[25]
  T/C: 100 % of control and 102 % of control
[26]
  T/C: 100 % of control and 111 % of control
dose: 400.0 mg/kg/injection, schedule: Q01DX010 (ip), vehicle: saline
  T/C: 110 % of control

## N#CCSc1ncnc2nc[nH]c12
dose: 7.5 mg/kg/injection, schedule: Q01DX010 (ip), vehicle: saline
  T/C: 100 % of control
dose: 15.0 mg/kg/injection, schedule: Q01DX010 (ip), vehicle: saline
  T/C: 103 % of control
dose: 30.0 mg/kg/injection, schedule: Q01DX010 (ip), vehicle: saline
  T/C: 100 % of control and 103 % of control
dose: 60.0 mg/kg/injection, schedule: Q01DX010 (ip), vehicle: saline
  T/C: 103 % of control and 106 % of control

## O=C(Nc1ccc(C2=NCCN2)cc1)c1ccc(C(=O)Nc2ccc(C3=NCCN3)cc2)cc1
dose: 4.0 mg/kg/injection, schedule: Q01DX010 (ip), vehicle: other
  T/C: 168 % of control
dose: 8.0 mg/kg/injection, schedule: Q01DX010 (ip), vehicle: other
  T/C: 277 % of control and 302 % of control
dose: 16.0 mg/kg/injection, schedule: Q01DX010 (ip), vehicle: other
  T/C: 242 % of control and 302 % of control
dose: 32.0 mg/kg/injection, schedule: Q01DX010 (ip), vehicle: other
  T/C: 166 % of control and 231 % of control
dose: 64.0 mg/kg/injection, schedule: Q01DX010 (ip), vehicle: other
  T/C: 168 % of control

## O=C(Nc1ccc(NC2=NCCN2)cc1)c1ccc(C(=O)Nc2ccc(NC3=NCCN3)cc2)cc1
[2]
  T/C: 120 % of control and 121 % of control
[27]
  T/C: 168 % of control
[17]
  T/C: 167 % of control and 200 % of control
[18]
  T/C: 107 % of control and 121 % of control

## C1CN1c1nc(N2CC2)nc(N2CC2)n1
dose: 0.13 mg/kg/injection, schedule: Q01DX010 (ip), vehicle: saline
  T/C: 100 % of control
dose: 0.25 mg/kg/injection, schedule: Q01DX010 (ip), vehicle: saline
  T/C: 100 % of control and 103 % of control
[1]
  T/C: 123 % of control
